Reference: US12319672B2, “Alpha-D-galactopyranoside derivatives” (Idorsia Pharmaceuticals Ltd, priority 2019, dated 2025)

Tests used:
human Gal-3 (hGal-3) = human Gal-3 (hGal-3) (Homo sapiens (Human), UniProt P17931); assay: Competitive binding assay: binding of biotinylated hGal-3 to microplate-adsorbed asialofetuin (ASF); settings: Activity on hGal-3; mean values of several measurements
Method in brief: (§1)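 Spectrophotometric readout (streptavidin-peroxidase, ABTS) of biotinylated galectin retained on ASF-coated wells. Biotinylated hGal-1 or hGal-3, 300-1000 ng/mL, co-incubated with test compound 3 h at 4° C, then washed. Mean IC50 from repeat runs.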

human Gal-1 (hGal-1) = assay: Competitive binding assay: binding of biotinylated hGal-1 to microplate-adsorbed asialofetuin (ASF); settings: Activities on hGal-1; mean values of several measurements
Method in brief: as §1

Sequence of human Gal-1 (hGal-1) (P09382 2-135 limits assumed): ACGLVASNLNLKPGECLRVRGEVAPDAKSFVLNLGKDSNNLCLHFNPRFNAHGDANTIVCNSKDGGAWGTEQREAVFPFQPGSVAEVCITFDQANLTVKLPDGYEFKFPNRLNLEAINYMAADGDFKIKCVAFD
Sequence of human Gal-3 (hGal-3) (P17931 whole entry): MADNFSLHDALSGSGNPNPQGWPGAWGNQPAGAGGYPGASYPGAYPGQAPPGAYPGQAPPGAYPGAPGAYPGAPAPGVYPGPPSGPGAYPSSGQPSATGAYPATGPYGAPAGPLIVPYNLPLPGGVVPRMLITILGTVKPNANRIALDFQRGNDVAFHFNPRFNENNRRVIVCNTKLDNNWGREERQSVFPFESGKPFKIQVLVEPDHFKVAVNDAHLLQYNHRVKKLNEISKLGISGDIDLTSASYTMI

SMILES	IC50 (human Gal-3 (hGal-3)) [nM]	IC50 (human Gal-1 (hGal-1)) [nM]
CO[C@@H]1[C@@H](n2cc(-c3cc(F)c(F)c(F)c3)nn2)[C@@H](O)[C@@H](CO)O[C@@H]1Cc1cc(C2CCC(NC(=O)[C@@H](NC(=O)OC(C)(C)C)C(C)C)CC2)no1 (stereo partly drawn) [Example 2.29, tert-butyl ((S)-1-(((1R,4S)-4-(5-(((2R,3R,4S,5R,6R)-5-hydroxy-6-(hydroxymethyl)-3-methoxy-4-(4-(3,4,5-trifluorophenyl)-1H-1,2,3-triazol-1-yl)tetrahydro-2H-pyran-2-yl)methyl)isoxazol-3-yl)cyclohexyl)amino)-3-methyl-1-oxobutan-2-yl)carbamate]	17	2330
CO[C@@H]1[C@@H](n2cc(-c3cc(F)c(F)c(F)c3)nn2)[C@@H](O)[C@@H](CO)O[C@@H]1Cc1cc(C2CCC(NC(=O)[C@@H](N)C(C)C)CC2)no1 (stereo partly drawn) [Example 2.30, (S)-2-amino-N-((1R,4S)-4-(5-(((2R,3R,4S,5R,6R)-5-hydroxy-6-(hydroxymethyl)-3-methoxy-4-(4-(3,4,5-trifluorophenyl)-1H-1,2,3-triazol-1-yl)tetrahydro-2H-pyran-2-yl)methyl)isoxazol-3-yl)cyclohexyl)-3-methylbutanamide]	72	1980
CC(C)(C)c1cc(C[C@H]2O[C@H](CO)[C@H](O)[C@H](n3cc(-c4cc(F)c(F)c(F)c4)nn3)[C@H]2OCC(=O)O)on1 [Example 2.37, 2-(((2R,3R,4S,5R,6R)-2-((3-(tert-butyl)isoxazol-5-yl)methyl)-5-hydroxy-6-(hydroxymethyl)-4-(4-(3,4,5-trifluorophenyl)-1H-1,2,3-triazol-1-yl)tetrahydro-2H-pyran-3-yl)oxy)acetic acid]	71	1740
CNC(=O)CO[C@@H]1[C@@H](n2cc(-c3cc(F)c(F)c(F)c3)nn2)[C@@H](O)[C@@H](CO)O[C@@H]1Cc1cc(C(C)(C)C)on1 [Example 2.38, 2-(((2R,3R,4S,5R,6R)-2-((5-(tert-butyl)isoxazol-3-yl)methyl)-5-hydroxy-6-(hydroxymethyl)-4-(4-(3,4,5-trifluorophenyl)-1H-1,2,3-triazol-1-yl)tetrahydro-2H-pyran-3-yl)oxy)-N-methylacetamide]	190	1990
CC(C)(C)c1cc(C[C@H]2O[C@H](CO)[C@H](O)[C@H](n3cc(-c4cc(F)c(F)c(F)c4)nn3)[C@H]2OCC(=O)N2CC[C@@H](O)C2)no1 [Example 2.39, 2-(((2R,3R,4S,5R,6R)-2-((5-(tert-butyl)isoxazol-3-yl)methyl)-5-hydroxy-6-(hydroxymethyl)-4-(4-(3,4,5-trifluorophenyl)-1H-1,2,3-triazol-1-yl)tetrahydro-2H-pyran-3-yl)oxy)-1-((R)-3-hydroxypyrrolidin-1-yl)ethan-1-one]	110	6680
CC(C)(C)c1cc(C[C@H]2O[C@H](CO)[C@H](O)[C@H](n3cc(-c4cc(F)c(F)c(F)c4)nn3)[C@H]2OCC(=O)N2CC(O)C2)no1 [Example 2.40, 2-(((2R,3R,4S,5R,6R)-2-((5-(tert-butyl)isoxazol-3-yl)methyl)-5-hydroxy-6-(hydroxymethyl)-4-(4-(3,4,5-trifluorophenyl)-1H-1,2,3-triazol-1-yl)tetrahydro-2H-pyran-3-yl)oxy)-1-(3-hydroxyazetidin-1-yl)ethan-1-one]	130	4580
CC(C)(C)c1cc(C[C@H]2O[C@H](CO)[C@H](O)[C@H](n3cc(-c4cc(F)c(F)c(F)c4)nn3)[C@H]2OCC(=O)N2CCC(O)CC2)no1 [Example 2.41, 2-(((2R,3R,4S,5R,6R)-2-((5-(tert-butyl)isoxazol-3-yl)methyl)-5-hydroxy-6-(hydroxymethyl)-4-(4-(3,4,5-trifluorophenyl)-1H-1,2,3-triazol-1-yl)tetrahydro-2H-pyran-3-yl)oxy)-1-(4-hydroxypiperidin-1-yl)ethan-1-one]	100	5840
CC(C)(C)c1cc(C[C@H]2O[C@H](CO)[C@H](O)[C@H](n3cc(-c4cc(F)c(F)c(F)c4)nn3)[C@H]2OCC(=O)N2CC[C@H](O)C2)no1 [Example 2.42, 2-(((2R,3R,4S,5R,6R)-2-((5-(tert-butyl)isoxazol-3-yl)methyl)-5-hydroxy-6-(hydroxymethyl)-4-(4-(3,4,5-trifluorophenyl)-1H-1,2,3-triazol-1-yl)tetrahydro-2H-pyran-3-yl)oxy)-1-((S)-3-hydroxypyrrolidin-1-yl)ethan-1-one]	180	3270
CC(C)(C)c1cc(C[C@H]2O[C@H](CO)[C@H](O)[C@H](n3cc(-c4ccc(F)c(F)c4F)nn3)[C@H]2OCC(=O)O)on1 [Example 2.43, 2-(((2R,3R,4S,5R,6R)-2-((3-(tert-butyl)isoxazol-5-yl)methyl)-5-hydroxy-6-(hydroxymethyl)-4-(4-(2,3,4-trifluorophenyl)-1H-1,2,3-triazol-1-yl)tetrahydro-2H-pyran-3-yl)oxy)acetic acid]	47	550
CC1(c2cc(C[C@H]3O[C@H](CO)[C@H](O)[C@H](n4cc(-c5ccc(F)c(F)c5F)nn4)[C@H]3OCC(=O)O)on2)CC1 [Example 2.44, 2-(((2R,3R,4S,5R,6R)-5-hydroxy-6-(hydroxymethyl)-2-((3-(1-methylcyclopropyl)isoxazol-5-yl)methyl)-4-(4-(2,3,4-trifluorophenyl)-1H-1,2,3-triazol-1-yl)tetrahydro-2H-pyran-3-yl)oxy)acetic acid]	40	510
Cc1ccc(-c2cn([C@H]3[C@@H](O)[C@@H](CO)O[C@H](Cc4cc(C(C)(C)C)no4)[C@@H]3OC(N)=O)nn2)c(F)c1F [Example 2.45, (2R,3R,4S,5R,6R)-2-((3-(tert-butyl)isoxazol-5-yl)methyl)-4-(4-(2,3-difluoro-4-methylphenyl)-1H-1,2,3-triazol-1-yl)-5-hydroxy-6-(hydroxymethyl)tetrahydro-2H-pyran-3-yl carbamate]	22	2420
CC(C)(CO)c1cc(C[C@H]2O[C@H](CO)[C@H](O)[C@H](n3cc(-c4ccc(F)c(F)c4F)nn3)[C@H]2OCC(=O)O)on1 [Example 2.46, 2-(((2R,3R,4S,5R,6R)-5-hydroxy-2-((3-(1-hydroxy-2-methylpropan-2-yl)isoxazol-5-yl)methyl)-6-(hydroxymethyl)-4-(4-(2,3,4-trifluorophenyl)-1H-1,2,3-triazol-1-yl)tetrahydro-2H-pyran-3-yl)oxy)acetic acid]	29	890
C#Cc1ccc(-c2cn([C@H]3[C@@H](O)[C@@H](CO)O[C@H](Cc4cc(C(C)(C)C)on4)[C@@H]3OC)nn2)c(F)c1F [Example 2.47, (2R,3R,4S,5R,6R)-6-((5-(tert-butyl)isoxazol-3-yl)methyl)-4-(4-(4-ethynyl-2,3-difluorophenyl)-1H-1,2,3-triazol-1-yl)-2-(hydroxymethyl)-5-methoxytetrahydro-2H-pyran-3-ol]	230	4400
CC(C)(C)c1cc(C[C@H]2O[C@H](CO)[C@H](O)[C@H](n3cc(-c4cc(F)c(F)c(F)c4)nn3)[C@H]2O)on1 [Example 2.48, (2R,3R,4R,5R,6R)-2-((3-(tert-butyl)isoxazol-5-yl)methyl)-6-(hydroxymethyl)-4-(4-(3,4,5-trifluorophenyl)-1H-1,2,3-triazol-1-yl)tetrahydro-2H-pyran-3,5-diol]	98	1040
